# Experimental data taken from publication PMC12693167, “Design, Synthesis and Anticancer Activity of 6-Substituted-1-(3,4,5-trimethoxyphenyl)-1H-indole Against Tubulin Polymerisation” (Molecules, 2025).
# Tests used:
# [1] = molecular target: T1, purified porcine brain tubulin (Sus scrofa, UniProt P02554); experiment: Biolayer interferometry (BLI) binding to tubulin; conditions: immobilized tubulin, 1:1 binding model, mean ± SD, triplicate
# T1 construct: purified porcine brain tubulin; from tissue; host or cells: porcine brain
# Method: To detect the direct interaction between the synthesized compounds and tubulin, biolayer interferometry (BLI) experiments were performed using purified porcine brain tubulin immobilized on Super Streptavidin (SSA) biosensor [30]. […] Association and dissociation kinetics were monitored in real time, and equilibrium dissociation constants (KD) were determined by global fitting of the sensorgrams to a 1:1 binding model. All measurements were conducted in triplicate, and results are reported as mean ± SD.
# BLI assays were performed on an Octet RED96 instrument (FortéBio, Pall Life Sciences, Menlo Park, CA, USA) at 25 °C in PBS buffer supplemented with 0.02% (v/v) Tween-20 as the running buffer. Biotinylated tubulin proteins (3 μg/mL) were immobilized onto Super Streptavidin (SSA) biosensors. Association and dissociation were monitored for 60 s each. […] Reference subtraction was performed using sensors incubated in running buffer without protein loading to correct for baseline drift. Data were analyzed using Octet Data Analysis software (version 9.0), and equilibrium dissociation constants (KD) were determined by fitting the curves to a 1:1 binding model. All measurements were performed in triplicate, and results are reported as mean ± SD.
# BLI assays were performed on an Octet RED96 instrument (FortéBio, Pall Life Sciences) at 25 °C in PBS buffer supplemented with 0.02% (v/v) Tween-20 as the running buffer. Biotinylated tubulin proteins (3 μg/mL) were immobilized onto Super Streptavidin (SSA) biosensors. Association and dissociation were monitored for 60 s […]
# Reference subtraction was performed using sensors incubated in running buffer without protein loading to correct for baseline drift. Data were analyzed using Octet Data Analysis software (version 9.0), and equilibrium dissociation constants (KD) were determined by fitting the curves to a 1:1 binding model. All measurements were performed in triplicate, and results are reported as mean ± SD.
# [2] = tested on: MDA-MB-231 cells; experiment: CCK-8 antiproliferative assay, MDA-MB-231; assay type: cell-based; conditions: Homo sapiens, cell viability (CCK-8), 48 h
# Method: To evaluate the anticancer potential of the synthesized compounds, a panel of six human and murine cancer cell lines representing different tissue origins was selected, including MCF-7 (human breast adenocarcinoma), MDA-MB-231 (human triple-negative breast cancer), A549 (human non-small cell lung cancer), HeLa (human cervical cancer), A375 (human melanoma), and B16-F10 (murine melanoma) (Table 2). […] DMSO was used as the vehicle control, and all experiments were performed in triplicate to ensure reproducibility.
# Human breast cancer cells (MCF-7), human lung cancer cells (A549), human cervical cancer cells (HeLa), human triple-negative breast cancer cells (MDA-MB-231), and human malignant melanoma cells (A375) were cultured in DMEM. Mouse melanoma cells (B16F10) were maintained in RPMI-1640 medium. All media were supplemented with 10% fetal bovine serum and 1% penicillin-streptomycin (Life Technologies, Carlsbad, CA, USA) and maintained at 37 °C in a humidified atmosphere with 5% CO2.
# The cytotoxicity of the test compounds was evaluated against MCF-7, A549, HeLa, MDA-MB-231, A375, and B16F10 using the CCK-8 assay. Cells were seeded into 96-well plates at a density of 5000 cells/well. After removing the medium, 100 μL of medium with 0.1% DMSO containing test compounds at different concentrations was added to each well and incubated at 37 °C for another 48 h. The CCK-8 solution was added and incubated for another 1 h, and then, the absorbance was detected with a microplate reader at a wavelength of 450 nm. The IC50 values were calculated by nonlinear regression analysis using GraphPad Prism 8.0.2. All the experiments were repeated at least three times.
# [3] = molecular target: T2, Porcine brain tubulin protein (Sus scrofa, UniProt P02554); experiment: In vitro tubulin polymerization assay; assay type: biochemical
# T2 construct: Porcine brain tubulin protein was dissolved in EM buffer; from tissue; host or cells: porcine brain
# Method: The ability of compound 3g to disrupt microtubule dynamics was assessed using an in vitro tubulin polymerization assay.
# Porcine brain tubulin protein was dissolved in EM buffer containing 5% glycerol (80 mM PIPES, 2 mM GTP, 2 mM MgCl2, and 0.5 mM EGTA, pH 6.9). Compounds were diluted in EM buffer to final concentrations of 50, 25, 10, 5, and 2.5 μM and added to a pre-warmed 384-well plate, followed by pre-incubation at 37 °C. Subsequently, 14 μL of the tubulin-GTP mixture was added to each well containing the test compounds. Tubulin polymerization was monitored by measuring absorbance at 340 nm every minute for 60 min. […] Each assay was performed in triplicate.
# Absorbance at 340 nm was determined every 1 min.
# [4] = tested on: microtubule network in MCF-7 cells; experiment: Immunofluorescence staining of microtubules; assay type: cell-based, human; conditions: 0.1, 1 and 10 μM, 24 h
# Method: Given the potent in vitro antiproliferative activity of compound 3g, its effects on microtubule organization were further investigated using immunofluorescence staining in MCF-7 cells. […] The network appeared disassembled and fragmented in a dose-dependent manner, indicating significant cytoskeletal destabilization.
# MCF-7 cells were seeded on glass coverslips in 24-well plates and then treated with vehicle control 0.1% DMSO, 3g (0.1, 1, 10 μM) for 24 h. The cells were fixed with 4% paraformaldehyde and then permeabilized with PBS containing 0.2% Triton X-100. After blocking for 30 min by adding 100 μL of goat serum albumin at room temperature, cells were incubated with a β-tubulin polyclonal antibody (Proteintech, Wuhan Sanying Biotechnology, Wuhan, China, Cat# 10094-1-AP, 1:500 dilution) at 37 °C for 12 h. Then, the cells were washed three times with PBS and incubated with a secondary antibody (Beyotime, Shanghai, China, Cat# A0516, 1:500 dilution) for 1 h at room temperature. Nuclei were labeled with 4,6-diamidino-2-phenylindole (DAPI). Cells were finally visualized using a fluorescence microscope (Nikon TI2-E+A1R, Nikon Corporation, Tokyo, Japan).
# Figure 5 Effects of compound 3g on microtubules. MCF-7 cells were treated with vehicle control 0.1% DMSO, compound 3g (0.1μM, 1μM, and 10 μM for 24 h). […]
# T1 sequence (P02554 whole entry): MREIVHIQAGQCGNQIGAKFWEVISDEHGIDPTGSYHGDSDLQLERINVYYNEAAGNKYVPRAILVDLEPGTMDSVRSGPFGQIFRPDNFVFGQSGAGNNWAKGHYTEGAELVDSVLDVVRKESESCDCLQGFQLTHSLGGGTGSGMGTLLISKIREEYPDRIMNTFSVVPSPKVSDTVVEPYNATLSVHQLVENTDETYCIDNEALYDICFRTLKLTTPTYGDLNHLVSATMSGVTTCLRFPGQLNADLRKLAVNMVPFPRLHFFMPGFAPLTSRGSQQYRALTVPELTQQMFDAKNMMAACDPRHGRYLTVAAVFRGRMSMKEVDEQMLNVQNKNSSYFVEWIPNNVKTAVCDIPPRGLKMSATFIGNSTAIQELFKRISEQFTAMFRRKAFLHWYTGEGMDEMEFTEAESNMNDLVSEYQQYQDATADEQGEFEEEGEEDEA
# T1 sequence (P02550 whole entry partner): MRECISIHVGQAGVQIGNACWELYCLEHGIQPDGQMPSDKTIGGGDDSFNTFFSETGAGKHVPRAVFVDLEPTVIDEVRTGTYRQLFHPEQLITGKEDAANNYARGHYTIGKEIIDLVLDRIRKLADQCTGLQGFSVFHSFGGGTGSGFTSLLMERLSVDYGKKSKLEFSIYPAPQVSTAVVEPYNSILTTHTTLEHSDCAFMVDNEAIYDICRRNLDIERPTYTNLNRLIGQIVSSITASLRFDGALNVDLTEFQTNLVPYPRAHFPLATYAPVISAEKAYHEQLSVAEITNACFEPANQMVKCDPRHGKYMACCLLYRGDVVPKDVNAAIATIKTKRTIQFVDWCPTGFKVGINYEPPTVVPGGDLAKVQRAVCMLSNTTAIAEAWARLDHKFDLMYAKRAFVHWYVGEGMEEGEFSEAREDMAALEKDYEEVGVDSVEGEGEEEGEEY
# T2 sequence (P02554 whole entry): as the sequence (P02554 whole entry) above
# T2 sequence (P02550 whole entry partner): as the sequence (P02550 whole entry partner) above
structure (smiles),measurement,setting,value
"COc1cc(-n2ccc3ccc(-c4ccc(C)c(C#N)c4)cc32)cc(OC)c1OC [3g, 2-methyl-5-(1-(3,4,5-trimethoxyphenyl)-1H-indol-6-yl)benzonitrile]",KD,[1],low micromolar range
same,Kd,[1],13 ± 1.17 µM
same,IC50,[2],1.61 ± 0.004 µM
same,effect on tubulin assembly,[3]; 50 μM,markedly suppressed tubulin assembly
same,effect on tubulin polymerization,"[3]; 2.5–50 μM, absorbance at 340 nm",inhibited tubulin polymerization in a concentration-dependent manner
same,microtubule architecture,[4],progressive disruption
